Test in all cases: inhibition of tumour cell growth, NCI panel, 48 h
Experiment [1] has as its system SN12C.
Experiment [2] relates to U-251.
The test system of experiment [3] is SR.
Experiment [4] deals with 786-0.
Experiment [5] has as its system OVCAR-5.
Experiment [6] relates to UACC-62.
Experiment [7] relates to SK-MEL-28.
Experiment [8] has as its system A549.
For experiment [9], the system named is Malme-3M.
For experiment [10], the system named is HL-60.
For experiment [11], the system named is HT-29.
In experiment [12] the test system is MDA-MB-231.
Experiment [13] concerns SF-295.
The subject of experiment [14] is UACC-257.
In experiment [15] the test system is OVCAR-4.
In experiment [16] the test system is SNB-19.
In experiment [17] the test system is HOP-62.
For experiment [18], the system named is HCT-15.
Experiment [19] concerns OVCAR-3.
The subject of experiment [20] is IGROV-1.

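Values below derive from 48-hour exposures of cells grown in 96-well plates, with endpoints linearly interpolated between the two concentrations bracketing the appropriate inhibition level. The concentration for 50% growth inhibition is given as GI50.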 The source made the active and inactive calls. No stated cut-off is given here; in the data, active = GI50 up to about 1.1 µM and inactive = higher.

Turning to `CN(Cc1cc(Cl)cc(Cl)c1O)Cc1c(O)ccc2ccccc12`, the GI50 in experiment [1] is 21.2 µM (inactive); in experiment [2], 16.3 µM (inactive); in experiment [3] it was 23.8 µM (inactive); in experiment [4], 21 µM (inactive); in experiment [5] it was 23.1 µM (inactive); in [6], 15.5 µM (inactive). Besides, the GI50 in experiment [7] was 19.1 µM (inactive); in experiment [8], 26 µM (inactive); in experiment [9] it was 14.9 µM (inactive); in experiment [10], 25.4 µM (inactive); in experiment [11], 27.9 µM (inactive); in [12], 16.9 µM (inactive). The GI50 is 17.2 µM (inactive) in [13]; 18.2 µM (inactive) in [14]; 17.1 µM (inactive) in experiment [15]; 19.8 µM (inactive) in experiment [16]; 18.1 µM (inactive) in experiment [17]; 17.6 µM in [18]. Further, the GI50 was 16.6 µM (inactive) in [19] and 17.3 µM (inactive) in experiment [20].
Turning to `c1ccc2c(c1)nnn2CN1CCOCC1`, the GI50 was 39.8 µM (inactive) in experiment [1]; > 100 µM (inactive) in experiment [2]; 25 µM (inactive) in experiment [3]; > 100 µM (inactive) in [4]; > 100 µM (inactive) in [5]; 58.3 µM (inactive) in experiment [6]. In addition, the GI50 in experiment [7] was > 100 µM (inactive); in [8], > 100 µM (inactive); in [9], 41.8 µM (inactive); in experiment [10], 29.2 µM (inactive); in experiment [11], > 100 µM (inactive); in experiment [12] it was > 100 µM (inactive). The GI50 in [13] is > 100 µM (inactive); in [14] it was > 100 µM (inactive); in experiment [15], > 100 µM (inactive); in [16], > 100 µM (inactive); in experiment [17], > 100 µM (inactive); in experiment [18] it was over 100 µM. For the same compound, the GI50 in experiment [19] is 28.9 µM (inactive); in experiment [20] it was 94.4 µM (inactive).
On to `CCOC(=O)CCC(NC(=O)Cc1ccc(Nc2nc3ccccc3nc2-c2cccs2)cc1)C(=O)OCC` (centres undefined), for which the GI50 in experiment [1] is > 100 µM (inactive); in experiment [2] it was 28.1 µM (inactive); in experiment [3], 29.3 µM (inactive); in [4], 29.6 µM (inactive); in experiment [5] it was > 100 µM (inactive); in experiment [6], 64.6 µM (inactive). Moreover, the GI50 in experiment [7] is > 100 µM (inactive); in experiment [8] it was 64.1 µM (inactive); in [9], 49.8 µM (inactive); in experiment [10] it was > 100 µM (inactive); in experiment [11], > 100 µM (inactive); in experiment [12], > 100 µM (inactive). Further, the GI50 in experiment [13] is 53.2 µM (inactive); in experiment [14], 79.3 µM (inactive); in experiment [15], 27.4 µM (inactive); in [16], 24.7 µM (inactive); in experiment [17], 31.9 µM (inactive); in experiment [18] it was over 100 µM. Moreover, in [19], the GI50 is 34 µM (inactive).
Regarding `C/C=C(\C)C(O)C(C)C(O)C/C=C(C)/C=C(\C)C/C(C)=C/C/C=C(\C)C(O)C(C)c1ccc(CCC)c(=O)o1` (centres undefined), the GI50 in [1] is 16.6 µM (inactive); in [2] it was 11.4 µM (inactive); in experiment [3], 18.8 µM (inactive); in experiment [4] it was 20.8 µM (inactive); in [5], 19.8 µM (inactive); in experiment [6], 9.86 µM (inactive). The GI50 was 17.1 µM (inactive) in experiment [7]; 3.57 µM (inactive) in experiment [8]; 9.25 µM (inactive) in experiment [9]; > 100 µM (inactive) in [10]; 1.69 µM (inactive) in experiment [11]; 13.2 µM (inactive) in [12]. The GI50 is 0.349 µM (active) in [13]; 0.249 µM (active) in experiment [14]; 10 µM (inactive) in experiment [15]; 16.1 µM (inactive) in experiment [16]; 16.2 µM (inactive) in experiment [17]; 1.17 µM in experiment [18]. Also, the GI50 in experiment [19] was 12.1 µM (inactive); in experiment [20], 14.6 µM (inactive).
On to `COC(=O)CC1C(C)(C)C(=O)C2CC3=C4CC(=O)OC(c5ccoc5)C4(C)CCC3C1(C)C2=O` (centres undefined), for which the GI50 in [1], in [2], in experiment [3], in experiment [4], in experiment [5] and in experiment [6] was > 100 µM (inactive) each time. Further, the GI50 is > 100 µM (inactive) in experiment [7]; > 100 µM (inactive) in experiment [8]; > 100 µM (inactive) in experiment [9]; 44.4 µM (inactive) in experiment [10]; > 100 µM (inactive) in [11]; > 100 µM (inactive) in experiment [12]. The GI50 in experiment [13] was > 100 µM (inactive); in [14], > 100 µM (inactive); in [15] it was > 100 µM (inactive); in experiment [16], > 100 µM (inactive); in experiment [17] it was > 100 µM (inactive); in experiment [18], over 100 µM. Further, the GI50 in experiment [19] and in experiment [20] was > 100 µM (inactive) in each case.
Regarding `NC(Cc1c[nH]c2ccccc12)P(=O)(O)O` (centres undefined), the GI50 in experiment [1], in experiment [2], in experiment [3], in [4], in [5] and in experiment [6] was > 100 µM (inactive) each time. Further, the GI50 in experiment [7], in experiment [8], in [9], in experiment [10], in [11] and in [12] was > 100 µM (inactive) in each case. Also, the GI50 in experiment [13] was > 100 µM (inactive); in experiment [14], > 100 µM (inactive); in [15], > 100 µM (inactive); in [16], > 100 µM (inactive); in experiment [17], > 100 µM (inactive); in [18], over 100 µM. Moreover, the GI50 in experiment [19] and in experiment [20] was > 100 µM (inactive) throughout.
In the case of `CCCCCCCCCCCCCCCCCCNc1ccn(C2OC(CO)C(O)C2O)c(=O)n1` (centres undefined), the GI50 is > 100 µM (inactive) in experiment [1]; 38.6 µM (inactive) in experiment [2]; 23.7 µM (inactive) in experiment [3]; > 100 µM (inactive) in experiment [4]; > 100 µM (inactive) in experiment [5]; > 100 µM (inactive) in experiment [6]. For the same compound, the GI50 in experiment [7] is > 100 µM (inactive); in experiment [8], 79.8 µM (inactive); in [9] it was > 100 µM (inactive); in [10], 2.49 µM (inactive); in experiment [11], > 95.5 µM (inactive); in experiment [12] it was > 100 µM (inactive). For the same compound, the GI50 is > 100 µM (inactive) in experiment [13]; > 100 µM (inactive) in experiment [14]; > 100 µM (inactive) in [15]; > 25.4 µM (inactive) in experiment [16]; > 100 µM (inactive) in experiment [17]; over 100 µM in experiment [18]. In addition, the GI50 in experiment [19] is > 100 µM (inactive); in experiment [20] it was 14.9 µM (inactive).
Consider `CCN(CC)/C(Cl)=C(Cl)\C(=C1\Nc2ccc(OC)cc21)[N+](=O)[O-]`, for which the GI50 in experiment [1] was > 100 µM (inactive); in experiment [2] it was 37.5 µM (inactive); in experiment [3], 16.6 µM (inactive); in experiment [4], 47.9 µM (inactive); in experiment [5], 95.7 µM (inactive); in [6] it was 88.5 µM (inactive). For the same compound, the GI50 in experiment [7] was 55.7 µM (inactive); in experiment [8] it was 58.9 µM (inactive); in experiment [9] it was > 100 µM (inactive); in experiment [10] it was 32.3 µM (inactive); in experiment [11] it was 56.2 µM (inactive); in experiment [12], 45.5 µM (inactive). The GI50 in experiment [13] was 45.8 µM (inactive); in [14], 75.5 µM (inactive); in experiment [15], 30.8 µM (inactive); in [16], 61 µM (inactive); in experiment [17] it was 78.7 µM (inactive); in experiment [18], 52.7 µM. For the same compound, the figures for the GI50 in experiment [19] and in experiment [20] were 13.7 µM (inactive) and 88.1 µM (inactive), respectively.
Regarding `C/C=C/C=C/C1=NN(c2cccc(S(=O)(=O)O)c2)C2(C1)C(Cl)C(=O)N2c1nc2ccccc2s1` (centres undefined), the GI50 is 14.9 µM (inactive) in experiment [1]; 9.55 µM (inactive) in [2]; 18.9 µM (inactive) in experiment [3]; 13.8 µM (inactive) in experiment [4]; 17.4 µM (inactive) in experiment [5]; 13 µM (inactive) in [6]. Also, the GI50 in [7] was 20.6 µM (inactive); in experiment [8] it was 14.6 µM (inactive); in experiment [9], 17.1 µM (inactive); in [10], 15.6 µM (inactive); in experiment [11], 17 µM (inactive); in experiment [12], 14.5 µM (inactive). The GI50 was 16.3 µM (inactive) in [13]; 15.4 µM (inactive) in [14]; 13.7 µM (inactive) in experiment [15]; 15.2 µM (inactive) in experiment [16]; 14.7 µM (inactive) in [17]; 14.5 µM in experiment [18]. The GI50 in experiment [19] was 8.36 µM (inactive); in experiment [20] it was 11 µM (inactive).
With `COC(=O)C1C2OC(C)(C)OC2CN1S(=O)(=O)c1ccc(C)cc1` (centres undefined), the GI50 in [1], in experiment [2], in experiment [3], in [4], in experiment [5] and in experiment [6] was > 100 µM (inactive) in each case. The GI50 in experiment [7], in [8], in experiment [9], in [10], in [11] and in [12] was > 100 µM (inactive) in each case. For the same compound, the GI50 in [13] is > 100 µM (inactive); in experiment [14] it was > 100 µM (inactive); in experiment [15], > 100 µM (inactive); in [16], > 100 µM (inactive); in experiment [17], > 100 µM (inactive); in experiment [18], over 100 µM. Besides, the GI50 in [19] is > 100 µM (inactive); in experiment [20], 14.5 µM (inactive).

The record behind these values is ChEMBL document CHEMBL1201862, “PubChem BioAssay data set” (2004).
